Patent publication US20120015957A1, “PIPERAZINYL DERIVATIVES USEFUL AS MODULATORS OF THE NEUROPEPTIDE Y2 RECEPTOR” (priority 2007, published 2012)

Key:
NPY Y2 receptor [1] = molecular target: T1, NPY Y2 receptor (Homo sapiens, UniProt P49146); test: Neuropeptide Y2 radioligand binding assay ([125I]PYY, KAN-Ts cell membranes); conditions: membranes of KAN-Ts cells endogenously expressing Y2 receptors; [125I]PYY 80 pM; 1 h at rt; read-out: IC50 (μM), NPY Y2 binding
T1 construct: endogenous in cells; host or cells: KAN-Ts cells (membrane preparation)
T1 sequence (P49146 1-381): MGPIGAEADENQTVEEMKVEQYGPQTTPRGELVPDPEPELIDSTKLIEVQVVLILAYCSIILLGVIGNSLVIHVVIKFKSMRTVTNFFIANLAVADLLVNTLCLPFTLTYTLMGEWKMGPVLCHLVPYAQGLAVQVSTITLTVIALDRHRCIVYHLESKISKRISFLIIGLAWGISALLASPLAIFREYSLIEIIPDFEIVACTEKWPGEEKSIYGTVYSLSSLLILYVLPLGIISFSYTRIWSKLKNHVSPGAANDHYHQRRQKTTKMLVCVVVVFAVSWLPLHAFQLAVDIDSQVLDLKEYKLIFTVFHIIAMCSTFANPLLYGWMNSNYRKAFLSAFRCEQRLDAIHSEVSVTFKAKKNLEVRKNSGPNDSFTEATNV
Outline: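 Membranes from KAN-Ts cells (endogenous Y2) incubated 1 h at rt with 80 pM [125I]PYY ± compound in HEPES/NaCl binding buffer, then filtered and counted. Nonspecific binding defined with […]. IC50 from sigmoidal fits; apparent K = IC50/(1+C/KD).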

NPY Y2 receptor [2] = molecular target: T1, NPY Y2 receptor; test: Neuropeptide Y2 pKB assay (FLIPR, KAN-Ts cells stably expressing chimeric G proteins); format: cell-based; conditions: apparent pKB, FLIPR calcium, KAN-Ts cells with chimeric G proteins; modified Cheng-Prusoff correction
Method: The assay was performed using the fluorimetric imaging plate reader (FLIPR) format as described in Dautzenberg, F. M., Biochemical Pharmacology 2005, 69, 1493.
KAN-Ts cells stably expressing chimeric G proteins were seeded at a density of 100,000 cells into poly-d-lysine coated 384-well blackwall, clear-bottom microtiter plates (Corning, N.Y.). One day later, the medium was removed and 50 μl loading medium DMEM high glucose, without serum, supplemented with 10 mM HEPES-acid, 0.1% BSA, 5 mM probenecid and 2 μM Fluo-3AM was added. Cells were loaded for 1 h at 37° C., washed twice with 50 μl assay buffer (5 mM HEPES-acid, 140 mM NaCl, 1 mM MgCl2, 5 mM KCl, 10 mM glucose) and then 30 μl assay buffer was added. Cells were further pre-incubated at room temperature before adding agonists or agonists plus antagonists in 20 μl assay buffer and then measured on a T-channel fluorometric imaging plate reader (FLIPR, Molecular Devices, Sunnyvale, Calif.). Antagonistic potency values were converted to apparent pKB values using a modified Cheng-Prusoff correction. Apparent pKB was calculated as pKB=−log IC50/1+[conc agonist/EC50].

SMILES | IC50 (NPY Y2 receptor [1]) | Kb (NPY Y2 receptor [2])
CCN(CC)C(=O)C(c1ccccc1)N1CCN(c2ccc(-c3noc(C(C)C)n3)cc2F)CC1 (stereo not drawn) [Compound 69, N,N-Diethyl-2-{4-[2-fluoro-4-(5-isopropyl-[1,2,4]oxadiazol-3-yl)-phenyl]-piperazin-1-yl}-2-phenyl-acetamide] | 0.13 µM | 50.1 nM
CCN(CC)C(=O)C(c1ccccc1)N1CCN(c2ccc(-c3nc(C)no3)cc2F)CC1 (stereo not drawn) [Compound 119, N,N-Diethyl-2-{4-[2-fluoro-4-(3-methyl-[1,2,4]oxadiazol-5-yl)-phenyl]-piperazin-1-yl}-2-phenyl-acetamide] | 0.085 µM | 89.1 nM
CCN(CC)C(=O)C(c1ccccc1)N1CCN(c2ccc(-c3nc(C)no3)cc2Br)CC1 (stereo not drawn) [Compound 203, 2-{4-[2-Bromo-4-(3-methyl-[1,2,4]oxadiazol-5-yl)-phenyl]-piperazin-1-yl}-N,N-diethyl-2-phenyl-acetamide] | 0.15 µM | 200 nM
CCN(CC)C(=O)C(c1ccccc1)N1CCN(c2ccc(-c3nc(C)no3)cc2C#N)CC1 (stereo not drawn) [Compound 217, 2-{4-[2-Cyano-4-(3-methyl-[1,2,4]oxadiazol-5-yl)-phenyl]-piperazin-1-yl}-N,N-diethyl-2-phenyl-acetamide] | 0.023 µM | 23.4 nM
CCN(CC)C(=O)C(c1ccccc1)N1CCN(c2ccc(-c3nc(C(C)C)no3)cc2C#N)CC1 (stereo not drawn) [Compound 218, 2-{4-[2-Cyano-4-(3-isopropyl-[1,2,4]oxadiazol-5-yl)-phenyl]-piperazin-1-yl}-N,N-diethyl-2-phenyl-acetamide] | 0.011 µM | 12.6 nM
CCN(CC)C(=O)C(c1cccc(F)c1)N1CCN(c2ccc(-c3nc(C)no3)cc2C#N)CC1 (stereo not drawn) [Compound 263, 2-{4-[2-Cyano-4-(3-methyl-[1,2,4]oxadiazol-5-yl)-phenyl]-piperazin-1-yl}-N,N-diethyl-2-(3-fluoro-phenyl)-acetamide] | 0.035 µM | 20 nM
